From US11059848B2, “Artemisinic acid glycoconjugate compounds, process for preparation and use thereof” (Council of Scientific and Industrial Research, priority 2018, dated 2021)
Where two headings read alike, the source gives them in different places.

Legend:
[1] = tested on: MCF7 (breast cancer cell line); experiment: Growth inhibition by MTT cytotoxicity assay, in vitro anticancer activity; format: cell-based
Protocol: Compounds were dissolved in DMSO (Sigma) to prepare 50 mM concentrations stock solutions. All the further dilutions were also made in DMSO. During the treatment, the final concentration of DMSO was maintained <[…].
Breast cancer cell line MCF7, maintained at NCCS, a national resource for providing cell lines, was grown in DMEM (GIBCO), MBA-MB-231 in RPMI (GIBCO) with 10% FBS, 100 U/mL penicillin and 100 μg/mL streptomycin and MCF10A in DMEM/F12 (Gibco) containing, horse Serum (10% final), EGF (20 ng/ml), Hydrocortisone ([…]), Cholera Toxin (100 ng/ml), Insulin (10 μg/ml) and Penicillin/Streptomycin mix (1 ml/100 ml) at 37° C. in a humid, 5% CO2 regulated incubator.
The cytotoxic effect of the compounds was determined using MTT (3-(4, 5 dimethylthiazol-2-yl)-2-5 diphenyltetrazolium bromide) assay. Cells were seeded (4×10^3 per well) in 96 well plates. After 24 hours of seeding, cells were exposed with varying concentrations ([…]) of respective compounds for 48 hours in triplicates. Then, MTT solution (20 μL of 5 mg/mL stock for each well of 96 well plate) was added and further incubated for 3.5 hours in humid 5% CO2 incubator. Media containing MTT solution was then replaced by MTT solvent (iso-propanol, HCl and Triton X-100), incubated for 15 min at room temperature with gentle shaking for complete dissolution of Formazan. Absorbance was measured at 570 nm using a Thermo Scientific Multiskan GO Elisa plate reader and IC 50 was calculated by routine methods. All experiments were carried out at least in triplicate, and the percentage of viable cells was calculated as the mean with respect to the controls.

[2] = Homo sapiens, MCF7 breast cancer cell line, MTT, 48 hours exposure, Table 1, read-out: IC50
[3] = MCF7 breast cancer cell line, MTT, 48 hours exposure, table of Example 4, read-out: IC50

Row | Structure (SMILES) | IC50 [1, 2] | IC50 [1, 3] | IC50 ([1]; Homo sapiens, MCF7, MCF-7 breast cancer cell line, read-out: IC50 value, anticancer activity against MCF-7) | IC50 value less when compared with artimisinic acid ([1]; MCF7, reduction of IC50 relative to artimisinic acid) | melting point
1 | C=C(C(=O)OCc1cn([C@@H]2O[C@H](COC(C)=O)[C@H](OC(C)=O)[C@H](OC(C)=O)[C@H]2OC(C)=O)nn1)[C@@H]1CC[C@@H](C)[C@@H]2CCC(C)=C[C@@H]21 [KTK-AA-2, (2R,3S,4S,5R,6R)-2-(acetoxymethyl)-6-(4-(((2-((1R,4R,4aS,8aR)-4,7-dimethyl-1,2,3,4,4a,5,6,8a-octahydronaphthalen-1-yl)acryloyl)oxy)methyl)-1H-1,2,3-triazol-1-yl)tetrahydro-2H-pyran-3,4,5-triyl triacetate] | > 100 µM | > 100 µM |  |  | 
2 | C=C(C(=O)OCc1cn([C@@H]2O[C@H](COC(C)=O)[C@@H](OC(C)=O)[C@H](OC(C)=O)[C@H]2OC(C)=O)nn1)[C@@H]1CC[C@@H](C)[C@@H]2CCC(C)=C[C@@H]21 [KTK-AA-4, (2R,3R,4S,5R,6R)-2-(acetoxymethyl)-6-(4-(((2-((1R,4R,4aS,8aR)-4,7-dimethyl-1,2,3,4,4a,5,6,8a-octahydronaphthalen-1-yl)acryloyl)oxy)methyl)-1H-1,2,3-triazol-1-yl)tetrahydro-2H-pyran-3,4,5-triyl triacetate] | > 100 µM | > 100 µM |  |  | 
3 | C=C(C(=O)OCc1cn([C@@H]2O[C@H](COC(=O)c3ccccc3)[C@H](OC(=O)c3ccccc3)[C@H](OC(=O)c3ccccc3)[C@H]2OC(=O)c2ccccc2)nn1)[C@@H]1CC[C@@H](C)[C@@H]2CCC(C)=C[C@@H]21 [KTK-AA-6, (2R,3S,4S,5R,6R)-2-((benzoyloxy)methyl)-6-(4-(((2-((1R,4R,4aS,8aR)-4,7-dimethyl-1,2,3,4,4a,5,6,8a-octahydronaphthalen-1-yl)acryloyl)oxy)methyl)-1H-1,2,3-triazol-1-yl)tetrahydro-2H-pyran-3,4,5-triyl tribenzoate] | > 100 µM | > 100 µM |  |  | 
4 | C=C(C(=O)OCc1cn([C@@H]2O[C@@H](C)[C@H](OC(C)=O)[C@@H](OC(C)=O)[C@H]2OC(C)=O)nn1)[C@@H]1CC[C@@H](C)[C@@H]2CCC(C)=C[C@@H]21 [KTK-AA-7, (2R,3R,4R,5S,6S)-2-(4-(((2-((1R,4R,4aS,8aR)-4,7-Dimethyl-1,2,3,4,4a,5,6,8a-octahydronaphthalen-1-yl)acryloyl)oxy)methyl)-1H-1,2,3-triazol-1-yl)-6-methyltetrahydro-2H-pyran-3,4,5-triyl triacetate] | 42 ± 2 µM |  | 42 µM | more than 50% | 89 to 92 °C
5 | C=C(C(=O)O)[C@@H]1CC[C@@H](C)[C@@H]2CCC(C)=C[C@@H]21 [KTK-AA- Artimisinic acid, Artemisinic acid] | > 100 µM | > 100 µM |  |  | 
6 | C=C(C(=O)NCc1cn([C@@H]2O[C@H](COC(C)=O)[C@@H](OC(C)=O)[C@H](OC(C)=O)[C@H]2OC(C)=O)nn1)[C@@H]1CC[C@@H](C)[C@@H]2CCC(C)=C[C@@H]21 [KTK-PA-2, (2R,3R,4S,5R,6R)-2-(acetoxymethyl)-6-(4-((2-((1R,4R,4aS,8aR)-4,7-dimethyl-1,2,3,4,4a,5,6,8a-octahydronaphthalen-1-yl)acrylamido)methyl)-1H-1,2,3-triazol-1-yl)tetrahydro-2H-pyran-3,4,5-triyl triacetate] | > 100 µM | > 100 µM |  |  | 
7 | C=C(C(=O)NCc1cn([C@@H]2O[C@H](COC(C)=O)[C@H](OC(C)=O)[C@H](OC(C)=O)[C@H]2OC(C)=O)nn1)[C@@H]1CC[C@@H](C)[C@@H]2CCC(C)=C[C@@H]21 [KTK-PA-3, (2R,3S,4S,5R,6R)-2-(acetoxymethyl)-6-(4-((2-((1R,4R,4aS,8aR)-4,7-dimethyl-1,2,3,4,4a,5,6,8a-octahydronaphthalen-1-yl)acrylamido)methyl)-1H-1,2,3-triazol-1-yl)tetrahydro-2H-pyran-3,4,5-triyl triacetate] | > 100 µM | > 100 µM |  |  | 
8 | C=C(C(=O)NCc1cn([C@@H]2O[C@H](COC(=O)c3ccccc3)[C@@H](OC(=O)c3ccccc3)[C@H](OC(=O)c3ccccc3)[C@H]2OC(=O)c2ccccc2)nn1)[C@@H]1CC[C@@H](C)[C@@H]2CCC(C)=C[C@@H]21 [KTK-PA-4, (2R,3R,4S,5R,6R)-2-((benzoyloxy)methyl)-6-(4-((2-((1R,4R,4aS,8aR)-4,7-dimethyl-1,2,3,4,4a,5,6,8a-octahydronaphthalen-1-yl)acrylamido)methyl)-1H-1,2,3-triazol-1-yl)tetrahydro-2H-pyran-3,4,5-triyl tribenzoate] | > 100 µM | > 100 µM |  |  | 
